Common to all, as to assay type: binding
Assay [1] deals with T1, CIB1 and αIIb interaction (GST-CIB1 : F-αIIb peptide) (Homo sapiens, UniProt Q99828).
T1 construct: made in house; host or cells: BL-21 plus RIL cells (E. coli)
T1 sequence (Q99828 1-191): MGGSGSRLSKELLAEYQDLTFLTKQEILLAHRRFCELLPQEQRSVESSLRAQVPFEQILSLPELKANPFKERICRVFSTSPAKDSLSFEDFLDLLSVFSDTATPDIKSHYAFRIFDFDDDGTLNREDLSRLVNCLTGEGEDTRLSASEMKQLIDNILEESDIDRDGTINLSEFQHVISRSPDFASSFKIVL
Kind of assay: FP assay, 384-well format (screen). More on the design: 384-well SCREEN Efficacy (%): concentration or dose not given beside the values. Particulars: F-αIIb peptide; for IC50: read-out: 384-well SCREEN IC50; for 384-well SCREEN Confirm?: YES/NO.

Assay [2] has as its target T2, GST-CIB1 : F-scrambled peptide (Homo sapiens, UniProt Q99828).
T2 construct: made in house; host or cells: BL-21 plus RIL cells (E. coli)
T2 sequence (Q99828 1-191): T1 sequence (Q99828 1-191)
The assay can be described thus: FP scrambled-peptide counter screen, 1536-well format. Particulars: scrambled-peptide counterscreen; for COUNTERSCREEN Confirm?: YES/NO call; for COUNTERSCREEN Curve Class: qHTS curve class. (In general: The purpose of a counterscreen is to sort out artefacts and off-target activity.)

The target of assay [3] is T2, GST-CIB1 : F-scrambled peptide. Kind of assay: FP scrambled-peptide counter screen, 384-well format. Particulars: F-scrambled peptide; for IC50: read-out: 384-well COUNTERSCREEN IC50; for 384-well COUNTERSCREEN Confirm?: *: Curve in opposite direction.
Assay [4] concerns the target T3, CIB1 and αIIb interaction (CIB1-GST : F-αIIb peptide) (Homo sapiens, UniProt Q99828).
T3 construct: made in house; host or cells: BL-21 plus RIL cells (E. coli)
T3 sequence (Q99828 1-191): T1 sequence (Q99828 1-191)
The assay can be described thus: FP assay, 1536-well qHTS format (primary and confirmatory screen). Particulars: for CONFIRMATORY SCREEN Confirm?: YES/NO call; for CONFIRMATORY SCREEN Curve Class: qHTS curve class; for CONFIRMATORY SCREEN Curve Class / Curve Class: negative sign = inhibitory curve; for CONFIRMATORY SCREEN Efficacy (%) / Efficacy (%): negative = inhibition. In general terms: qHTS replaces the single test concentration by a dilution series.

[5] abbreviates: confirmatory screen, read-out: CONFIRMATORY SCREEN IC50.
Setting [6] is: qHTS primary screen hits, Table S2.
Where [7] appears, read: qHTS primary screen hits, Table S2, read-out: IC50.

A word on the IC50: it is the concentration needed to halve the response being measured.

Where two headings read alike, the source gives them in different places. Some results are limits rather than exact numbers.

On to `Cc1ccc(-c2cc(-c3nn(-c4nc(C(=O)O)cs4)c(CC4CC4)c3Cc3ccc(S(N)(=O)=O)c(F)c3)ccc2F)s1.Cl` [NCGC00388587-02], for which, in assay [1], the “384-well SCREEN Efficacy (%)” value turned out to be 84% and the IC50 was greater than 120 µM. In addition, in assay [2], the “COUNTERSCREEN Efficacy (%)” value came out at 32%, the “COUNTERSCREEN Confirm?” value is given as “YES” and the “COUNTERSCREEN Curve Class” value worked out at 4. In assay [3], the “384-well COUNTERSCREEN Efficacy (%)” value is recorded as 242% and the half-maximal inhibitory concentration (IC50) worked out at 50.1 µM. In assay [4] (confirmatory screen), the “CONFIRMATORY SCREEN Confirm?” value is listed as “YES”, the “CONFIRMATORY SCREEN Curve Class” value is given as -2.4 and the “CONFIRMATORY SCREEN Efficacy (%)” value was -66%. For the same compound, the IC50 in assay [4] (setting [5]) is 20 µM. Moreover, the “Efficacy (%)” value in assay [4] (setting [6]) is recorded as -23%. The “Curve Class” value in assay [4] (qHTS primary screen hits, Table S2, several classes where COUNT > 1) is -1.4. Further, in assay [4] (setting [7]), the IC50 was found to be 28.2 µM.

Take `Brc1c(Br)c(Br)c2[nH]nnc2c1Br` [NCGC00092352-04, 4,5,6,7-tetrabromobenzotriazole, reference compound]: in assay [1], the “384-well SCREEN Efficacy (%)” value is on record as 40%, the “384-well SCREEN Confirm?” value is “YES” and the IC50 is 4.7 µM. Also, in assay [2], the “COUNTERSCREEN Efficacy (%)” value was found to be 79%, the “COUNTERSCREEN Confirm?” value is given as “YES” and the “COUNTERSCREEN Curve Class” value is recorded as 3. The IC50 in assay [2] (read-out: COUNTERSCREEN IC50) amounted to 79.4 µM. Further, in assay [3], the “384-well COUNTERSCREEN Efficacy (%)” value amounted to 35%, the “384-well COUNTERSCREEN Confirm?” value was “YES” and the half-maximal inhibitory concentration (IC50) is greater than 120 µM. The IC50 in assay [4] (1536-well qHTS of 14,782 compounds, read-out: intraplate control IC50) was roughly 10.7 µM. The half-maximal inhibitory concentration (IC50) entry in assay [4] (1536-well, LOPAC1280 pilot screen, 0.85 μM GST-CIB1, 100 nM F-αIIb, RT 15 minutes) is listed as “double-digit micromolar inhibitor”. In assay [4] (confirmatory screen), the “CONFIRMATORY SCREEN Confirm?” value was “YES”, the “CONFIRMATORY SCREEN Curve Class” value is listed as -1.2 and the “CONFIRMATORY SCREEN Efficacy (%)” value is -43%. In assay [4] (setting [5]), the half-maximal inhibitory concentration (IC50) was determined as 2.8 µM. Also, in assay [4] (qHTS FP screen hits, Table S2), the “Efficacy (%)” value is given as -49%. The “Curve Class” value in assay [4] (qHTS FP screen hits, Table S2, one class per curve where COUNT > 1) is given as -1.2. Further, the IC50 in assay [4] (qHTS FP screen hits, Table S2, read-out: IC50) came out at 14.1 µM.

With `Cc1nc(/N=N\c2cc(S(=O)(=O)O)c3cc([N+](=O)[O-])cc(S(=O)(=O)O)c3c2)c(COP(=O)(O)O)c(C=O)c1O` [NCGC00162294-03], the results for the IC50 in assay [1], in assay [3] and in assay [4] (setting [7]) were 1.7 µM, 3.3 µM and 7.9 µM, respectively.

For `CN1CCCN=C1/C=C/c1cccs1` [NCGC00094552-04], the IC50 was greater than 120 µM in assay [1], 4.6 µM in assay [3], 50.1 µM in assay [4] (setting [5]) and 24.1 µM in assay [4] (setting [7]).

As for `NS(=O)(=O)c1cccc2c1c([N+](=O)[O-])cc1nc(O)c([O-])nc12.[Na+]` [NCGC00024961-03], in assay [1], the “384-well SCREEN Efficacy (%)” value is 70%, the “384-well SCREEN Confirm?” value is recorded as “YES” and the IC50 came to 9.1 µM. In addition, in assay [3], the “384-well COUNTERSCREEN Efficacy (%)” value was determined as 70% and the IC50 came to 7.4 µM. For the same compound, in assay [4] (setting [6]), the “Efficacy (%)” value is -46% and the “Curve Class” value was -1.2. Moreover, the IC50 in assay [4] (setting [7]) was 5 µM.

On to `OCCN(CCO)c1nc(N2CCCCC2)c2nc(N(CCO)CCO)nc(N3CCCCC3)c2n1` [NCGC00015385-15], for which, in assay [1], the “384-well SCREEN Efficacy (%)” value is 175%, the “384-well SCREEN Confirm?” value is “YES” and the IC50 turned out to be 22.2 µM. Moreover, in assay [3], the “384-well COUNTERSCREEN Efficacy (%)” value was 200% and the IC50 was 22.2 µM. In addition, in assay [4] (setting [6]), the “Efficacy (%)” value is -172% and the “Curve Class” value is on record as -1.1. Further, the IC50 in assay [4] (setting [7]) was found to be 12.7 µM.

Regarding `O=C(O)C1=CC(=C(c2ccc(O)c(C(=O)O)c2)c2ccc(O)c(C(=O)O)c2)C=CC1=O` [NCGC00015040-05], in assay [1], the “384-well SCREEN Efficacy (%)” value was 45%, the “384-well SCREEN Confirm?” value was “YES” and the IC50 was 4.6 µM. In addition, in assay [3], the “384-well COUNTERSCREEN Efficacy (%)” value came out at 15%, the “384-well COUNTERSCREEN Confirm?” value is reported as “YES” and the IC50 was greater than 120 µM. Besides, in assay [4] (setting [6]), the “Efficacy (%)” value is on record as -33% and the “Curve Class” value is given as -1.2. Also, the IC50 in assay [4] (setting [7]) was 3.2 µM.
